Assay results from EP0311616B1, “COMBINATIONS OF GAMMA INTERFERONS AND ANTI-INFLAMMATORY OR ANTI-PYRETIC AGENTS FOR TREATING DISEASES” (BIOGEN, INC., priority 1986, dated 1987).
Read-outs that look alike come from different tables or passages of the source.

What was measured:
[1] = day 6
Text: (§1) In each example, following the standardized protocol for the Subrenal Capsule™ Assay [A.E. Bogden, P.M. Haskell, D.J. LePage, D.E. Kelton, W.R. Cobb, H.J. Esber, "Growth Of Human Tumor Xenografts Implanted Under The Renal Capsule Of Normal Immunocompetent Mice", Exp. Cell Biology, 47, pp. 281-93 (1979)], we implanted BL/MEX6 human melanoma established in serial transplantation (Bogden Laboratories) under the renal capsule of normal, immunocompetent mice (BALB/c × DBA/2) F₁ (CDF₁) (Examples 1 and 2) and into (B6C3F₁) mice (Example 3). Each mouse weighed approximately 25 grams. We then divided the mice into treatment groups as follows: group 1: 10 mice, groups 2-7: 8 mice each.
(§2) In each example, for each mouse, we recorded initial body weight, implanted a tumor and recorded an initial in situ tumor measurement (two diameters) in ocular micrometer units (omu). We administered treatment on days 1-5. Survivors were recorded and any mice dying prior to sacrifice were necropsied. On day 6, the mice were sacrificed, final body weights were recorded, implanted kidneys were removed and final in situ tumor measurements were made to determine tumor growth inhibition or regression. We calculated the ratio of average final body weight to initial body weight (FBW/IBW) to monitor systemic toxicity. Change in (Δ) tumor size between day of sacrifice (day 6) and day of tumor implant (day 0) was calculated individually and for each group.

[2] = test system: BL/MEX6 human melanoma; test: six day Subrenal Capsule Assay, tumor xenograft implanted under the renal capsule of normal immunocompetent mice; type: in vivo; details: for Avg. Δ Tumor Size (mean ± S.D.): change Day 6-Day 0; for Tumor Response: summary of Examples 1-3, IFN-γ i.m., cortisone and prednisone s.c., all other agents p.o., b.i.d., QD1-5, significance of inhibition vs control
Text: as §1
Over a five-day period, we treated each of groups 4-7 of mice with one of the following anti-inflammatory agents or anti-pyretic agents, either singly or in combination with IFN-γ (IFN-γ dosage: 2,000 µg/Kg/inj., b.i.d., i.m.):
The anti-inflammatory agents or anti-pyretic agents were administered prior to IFN-γ in all combination treatment groups. In each example, we treated groups 1-3 of mice as follows: Group 1: 0.25 ml/inj., b.i.d., i.m. PBS (vehicle treated control) Group 2: 400 mg/Kg/inj., s.c. DTIC [dacarbazine] (positive chemotherapy control) Group 3: 2,000 µg/Kg/inj., b.i.d., i.m. IFN-γ
as §2

[3] = Example 2, CDF1 mice, treatment QD1-5 at doses of Table III
[4] = Example 2, (BALB/c × DBA/2) F1 (CDF1) mice, treatment QD1-5 at doses of Table III
[5] = Example 2, CDF1 mice, treatment QD1-5 at doses of Table III, day 6
[6] = Example 1, CDF1 mice, treatment QD1-5 at doses of Table I
[7] = Example 3, B6C3F1 mice, treatment QD1-5 at doses of Table V
[8] = Example 1, (BALB/c × DBA/2) F1 (CDF1) mice, treatment QD1-5 at doses of Table I
[9] = Example 1, CDF1 mice, treatment QD1-5 at doses of Table I, day 6
[10] = Example 3, (B6C3F1) mice, treatment QD1-5 at doses of Table V
[11] = Example 3, B6C3F1 mice, treatment QD1-5 at doses of Table V, day 6

Structure (SMILES) | FBW/IBW (Final Body Weight/Initial Body Weight) [1, 3] | Avg. Δ Tumor Size (mean ± S.D.) [2, 4] [omu] | Percent Test/Control [2, 5] [%] | Test-Control (Δ tumor size (test) minus Δ tumor size (control), degree of tumor inhibition) [2, 5] [omu] | Tumor Response [2] | FBW/IBW (Final Body Weight/Initial Body Weight) [1, 6] | FBW/IBW (Final Body Weight/Initial Body Weight) [1, 7] | Avg. Δ Tumor Size (mean ± S.D.) [2, 8] [omu] | Percent Test/Control [2, 9] [%] | Test-Control (Δ tumor size (test) minus Δ tumor size (control), degree of tumor inhibition) [2, 9] [omu] | R = regression from original size using the formula FTS (final tumor size)-ITS (initial tumor size)/ITS x 100 ([2]; Example 2, CDF1 mice, printed as R plus number in the Percent Test/Control column, day 6) | Avg. Δ Tumor Size (mean ± S.D.) [2, 10] [omu] | R = regression from original size using the formula (FTS-ITS)/ITS x 100 ([2]; Example 3, B6C3F1 mice, printed as R plus number in the Percent Test/Control column, day 6) | Test-Control (Δ tumor size (test) minus Δ tumor size (control), degree of tumor inhibition) [2, 11] [omu] | Percent Test/Control [2, 11] [%]
CC(=O)Oc1ccccc1C(=O)O [ASA, acetyl salicylic acid] | 0.93 | 3.2±1.95 | 80 | -0.80 | - |  |  |  |  |  |  |  |  |  | 
CC(=O)Nc1ccc(O)cc1 [Acetaminophen] |  | 1.9±1.46 | 48 | -2.10 | ++ (Significant inhibition p<0.01) |  |  |  |  |  |  |  |  |  | 
CN(C)/N=N/c1[nH]cnc1C(N)=O [DTIC, dacarbazine] | 0.81 | -0.2±0.70 |  | -4.20 |  | 0.86 | 0.81 | 0.5±0.7 | 14 | -3.20 | R2% | -0.2±1.00 | R2% | -3.70 | 
COc1ccc2cc([C@H](C)C(=O)O)ccc2c1 [Naproxen] |  |  |  |  | - | 0.99 |  | 2.8±1.28 | 76 | -0.90 |  |  |  |  | 
C[C@]12C=CC(=O)C=C1CC[C@@H]1[C@@H]2C(=O)C[C@@]2(C)[C@H]1CC[C@]2(O)C(=O)CO [Prednisone] |  |  |  |  | ++ (Significant inhibition p<0.01) |  |  |  |  |  |  | 0.6±1.57 |  | -2.90 | 17
C[C@]12CCC(=O)C=C1CC[C@@H]1[C@@H]2C(=O)C[C@@]2(C)[C@H]1CC[C@]2(O)C(=O)CO [Cortisone] |  |  |  |  | + (Significant inhibition p<0.05) |  | 0.96 |  |  |  |  | 1.3±1.73 |  | -2.20 | 37
COc1ccc2c(c1)c(CC(=O)O)c(C)n2C(=O)c1ccc(Cl)cc1 [Indomethacin] |  |  |  |  | - | 0.98 |  | 3.1±1.69 | 84 | -0.60 |  |  |  |  | 
